Laboratory results from ChEMBL document CHEMBL6087429, “Synthesis of drimanyl indole fragments of drimentine alkaloids and their antibacterial activities” (2025).
Converted amounts (≈) assume the structure as drawn.

Experiments:
Format in all cases: functional
Escherichia coli = test: Antibacterial activity against Escherichia coli ATCC 25922 assessed as inhibition of bacterial growth
Staphylococcus aureus [1] = test: Antibacterial activity against Staphylococcus aureus ATCC 29213 assessed as inhibition of bacterial growth at 16 ug/ml
Ralstonia solanacearum [2] = test: Antibacterial activity against Ralstonia solanacearum Px1 assessed as inhibition of bacterial growth at 16 ug/ml
Pseudomonas aeruginosa = test: Antibacterial activity against Pseudomonas aeruginosa PA14 assessed as inhibition of bacterial growth
Staphylococcus aureus [3] = test: Antibacterial activity against Staphylococcus aureus ATCC 29213 assessed as inhibition of bacterial growth
Ralstonia solanacearum [4] = test: Antibacterial activity against Ralstonia solanacearum Px1 assessed as inhibition of bacterial growth

SMILES	inhibition (INH) (Escherichia coli) [%]	inhibition at 16 µg/mL (Staphylococcus aureus [1]) [%]	inhibition at 16 µg/mL (Ralstonia solanacearum [2]) [%]	inhibition (INH) (Pseudomonas aeruginosa) [%]	MIC (Staphylococcus aureus [3]) [µg/mL]	MIC (Ralstonia solanacearum [4]) [µg/mL]
Cc1c(C[C@@H]2[C@@]3(C)CCCC(C)(C)[C@@H]3CC[C@@]2(C)O)c2ccccc2n1-c1ccccc1	0	0	0	0	–	–
S=c1[nH]nc(NCNc2n[nH]c(=S)s2)s1	–	0	0	–	256 (≈ 919 µM)	128 (≈ 460 µM)
C=CCCn1c(C)c(C[C@@H]2[C@@]3(C)CCCC(C)(C)[C@@H]3CC[C@@]2(C)O)c2ccccc21	0	0	0	0	–	–
Cc1ccc(Cn2c(C)c(C[C@@H]3[C@@]4(C)CCCC(C)(C)[C@@H]4CC[C@@]3(C)O)c3ccccc32)cc1	0	0	0	0	–	–
Cc1c(C[C@@H]2[C@@]3(C)CCCC(C)(C)[C@@H]3CC[C@@]2(C)O)c2ccccc2n1Cc1ccccc1	0	0	0	0	–	–
Cc1c(C[C@@H]2[C@@]3(C)CCCC(C)(C)[C@@H]3CC[C@@]2(C)O)c2ccccc2n1C(=O)c1ccccc1	0	0	0	0	–	–
CN[C@H](CC(C)C)C(=O)N[C@H]1C(=O)N[C@@H](CC(N)=O)C(=O)N[C@H]2C(=O)N[C@H]3C(=O)N[C@H](C(=O)N[C@H](C(=O)O)c4cc(O)cc(O)c4-c4cc3ccc4O)[C@H](O)c3ccc(c(Cl)c3)Oc3cc2cc(c3O[C@@H]2O[C@H](CO)[C@@H](O)[C@H](O)[C@H]2O[C@H]2C[C@](C)(N)[C@H](O)[C@H](C)O2)Oc2ccc(cc2Cl)[C@H]1O [VANCOMYCIN]	–	> 99	> 99	–	–	< 0.5
Cc1c2c3ccccc3n1[C@]1(C)CC[C@H]3C(C)(C)CCC[C@]3(C)[C@H]1C2	0	0	0	0	–	–
C=C1CC[C@H]2C(C)(C)CCC[C@]2(C)[C@H]1Cc1c(C)[nH]c2ccccc12	0	0	> 99	0	–	16 (≈ 47.7 µM)
CC1=CC[C@H]2C(C)(C)CCC[C@]2(C)[C@H]1Cc1c(C)[nH]c2ccccc12	0	0	95	0	–	–
C=C[C@](C)(O)CC[C@@H]1[C@@]2(C)CCCC(C)(C)[C@@H]2CC[C@@]1(C)O [SCLAREOL]	0	> 99	65	0	16 (≈ 51.9 µM)	32 (≈ 104 µM)
Cc1c(C[C@@H]2[C@@]3(C)CCCC(C)(C)[C@@H]3CC[C@@]2(C)O)c2ccccc2n1Cc1ccc(C(F)(F)F)cc1	0	0	0	0	–	–
Cc1c(C[C@@H]2[C@@]3(C)CCCC(C)(C)[C@@H]3CC[C@@]2(C)O)c2ccccc2n1Cc1ccc(F)cc1	0	0	0	0	–	–
CCn1c(C)c(C[C@@H]2[C@@]3(C)CCCC(C)(C)[C@@H]3CC[C@@]2(C)O)c2ccccc21	0	0	0	0	–	–
Cc1[nH]c2ccccc2c1C[C@@H]1[C@@]2(C)CCCC(C)(C)[C@@H]2CC[C@@]1(C)O	0	93	> 99	0	–	8 (≈ 22.6 µM)
Cc1c(C[C@@H]2[C@@]3(C)CCCC(C)(C)[C@@H]3CC[C@@]2(C)O)c2ccccc2n1-c1ccc(C(F)(F)F)cc1	0	0	0	0	–	–
Cc1ccc(-n2c(C)c(C[C@@H]3[C@@]4(C)CCCC(C)(C)[C@@H]4CC[C@@]3(C)O)c3ccccc32)cc1	0	0	0	0	–	–
C=CCn1c(C)c(C[C@@H]2[C@@]3(C)CCCC(C)(C)[C@@H]3CC[C@@]2(C)O)c2ccccc21	0	0	0	0	–	–
Cc1c(C[C@@H]2[C@@]3(C)CCCC(C)(C)[C@@H]3CC[C@@]2(C)O)c2ccccc2n1-c1ccc(F)cc1	0	0	0	0	–	–
CC1=C(Cc2c(C)[nH]c3ccccc23)[C@@]2(C)CCCC(C)(C)[C@@H]2CC1	0	0	92	0	–	–
Cc1c(C[C@@H]2[C@@]3(C)CCCC(C)(C)[C@@H]3CC[C@@]2(C)O)c2ccccc2n1C	0	0	0	0	–	–
